{"source": "patent US11629192B2", "about": "“Methods and pharmaceutical compositions for the treatment of diseases mediated by the NRP-1/OBR complex signaling pathway” (INSERM (Institut National de la Sante et de la Recherche …, priority 2014, dated 2023)", "key": {"[1]": {"system": "OBR and STAT3 phosphorylation", "assay": "OBR and STAT3 phosphorylation in cytoplasmic and nuclear fractions", "assay_type": "cell-based", "conditions": "Leptin stimulation", "excerpt": "Since both NRP-1/OBR complex formation and NRP-1 phosphorylation were abolished by CK2 inhibition, we supposed that OBR signaling pathway could be also affected by CK2 inhibition."}, "P-NRP-1": {"system": "P-NRP-1", "assay": "NRP-1 (P-NRP-1) and OBR phosphorylation in MDA-MB-231, immunostaining / coimmunoprecipitation", "assay_type": "cell-based, human", "conditions": "MDA-MB-231 serum starved, Leptin (10 nM)", "excerpt": "Beside the modulation of the NRP-1/OBR complex formation by Leptin and OBR phosphorylation, we postulated a possible phosphorylation of NRP-1 that can regulate the translocation of the complex to the nucleus. Two putative phosphorylation sites of NRP-1 have been reported with no more investigation. The first one at the extracellular B domain as reported by Shintani et al in 2009 with no antibody available and the second one at the Threonine 916 located in the cytoplasmic domain as it was reported by Kyle et al in 2011. Since a specific antibody against P-NRP-1 at the T916 was available, we investigated by coimmunoprecipitation the detection of P-NRP-1 in MDA-MB-231 after serum starvation and stimulation by Leptin (10 nM). […] To confirm this phosphorylation state, we investigated the possible implication of a Serine/threonine Kinase CK2 using one of its first chemical inhibitor (DRB). In serum starved condition, P-NRP-1 was detected as polarized spot in the cytoplasm and the nucleus of MDA-MB-231. […] The inhibition was specific since, in stimulated condition combined with DMSO at the same dilution of DRB, we were able to observe a diffuse nuclear P-NRP-1 staining."}, "[2]": {"biological_target": "Human neuropilin-1 (hNRP-1) (Homo sapiens, UniProt O14786)", "assay": "Bio-Layer Interferometry (BLI) interaction with hNRP-1", "assay_type": "binding", "excerpt": "FIG. 5. NRP-1, OBR and leptin interactions confirmation using a Bio-Layer Interferometry (BLI) technology (fortebio.com/bli-technology.html): A-Leptin (OB) interaction to OBR is used as a positive control. Human neuropilin-1 (hNRP-1) interact with human OBR with a high affinity and specifically with human leptin (hOB) but not with murine leptin (mOB). VEGF165 binding to hNRP-1 is used as a positive control. B-Leptin and Avastin association increases MDA-MB231 cells transmigration through […] pore Insert. Avastin treatment may prevent a negative feedback control by VEGF of the pro-angiogenic signaling pathway of Leptin. VEGF binds to OBR which confirms our hypothesis that should be more investigated."}, "NRP-1/OBR complex": {"system": "NRP-1/OBR complex", "assay": "NRP-1/OBR complex detection by Duolink Proximity Ligation Assay in MDA-MB-231 cells", "assay_type": "cell-based, human", "conditions": "Leptin stimulation compared to serum starved and unstimulated cells", "excerpt": "FIG. 2A-E. NRP-1/OBR complex is dependent of the activity of Protein-kinase CK2: NRP-1 and OBR are both a substrate of the holoenzyme CK2: In vitro phosphorylation of the recombinant full length NRP-1 (A) and the length OBR (B) indicate that the CK2β subunit is indispensable for the CK2 activity. C. Detection of the NRP-1 and CK2β subunit interaction: By using the PLA technology, the in vitro data showing the implication of CK2β subunit in the phosphorylation of NRP-1 by CK2 are in part confirmed in MDA-MB231 cells by the detection of CK2β interaction with NRP-1 as indicated by the duolink (white dot). […] E. inhibition of the NRP-1/OBR by the simultaneous CK2α and CK2α′ expression silencing using siRNA that confirms the CK2 implication In the NRP-1/OBR complex formation and nuclear localization.\nTo confirm a direct association of NRP-1 and Leptin in breast cancer cell migration, we investigated the NRP-1 and OBR interaction by using proximity ligation assay technology (Duolink) in MDA-MB-231 and in T47D-NRP-1. Since OBR is a member of the class I cytokine receptor family, we asked the question if the formation of the complex NRP-1/OBR can or not be modulated by Leptin. This question was investigated endogenously in MDA-MB-231 or by transient transfection of T47D either by NRP-1 or by NRP-1/OBR or OBR alone. After 24 h of transfection, cells were serum starved for 16 h then stimulated with Leptin (10 nM). After 3 h, the stimulation was stopped by removing the medium, cells was first washed then fixed and NRP-1/OBR complex formation was analyzed by Duolink in situ Proximity Ligation Assay (PLA) and by confocal microscopy detection. Co-localization was analyzed using JACoP (ImageJ; National Institutes of Health, Bethesda, Md.) software. Co-localization between molecules was indicated by a positive Pearson coefficient (r). First, the expression of NRP-1 in transfected T47D was confirmed by RT-PCR. NRP-1 forms a complex with endogenous OBR as it is shown by the Duolink detection as red dot in cells transfected with pcDNA3-NRP-1. The Duolink signal increased in the T47D co-transfected with NRP-1 and OBR. The Duolink signals in T47D transfected with either the empty vector pcDNA3 or with the OBR expressing vector were similar. The same results are observed in MDA-MB-231. […] By using subcellular protein fractionation kit, NRP-1 and OBR localization in cytoplasmic (C), membrane (M), in the total nuclear extract (N) or in soluble nuclear (SN) and chromatin bound fractions (CB) was analyzed by western blotting either in total lysate or after coimmunoprecipitation. The purity of fraction was assessed by the detection of specific proteins of each fraction such as Hsp90 for the C fraction, SP1 and HDAC2 for the SN and CB fractions and specifically the Calreticulin for endoplasmic reticulum (ER) in order to detect any contamination by the ER membrane fraction in the nuclear fractions. As suspected, OBR was coimmunoprecipitated with NRP-1 in the cytoplasmic (C) and in the nuclear fraction (N) of MDA-MB-231 but not in T47D. As well as Phosphorylated OBR (P-OBR), NRP-1 was detected in cytoplasmic fraction and in nuclear fractions SN and CB of 16 h serum starved MDA-MB-231 and stimulated with 10 nM of Leptin during 3 h at 37° C. The P-OBR and NRP-1 coimmunoprecipitated in the nuclear fractions, increasing with Leptin stimulation as observed by confocal microscopy.\nAs attempted, NRP-1/OBR complex was detected by confocal microscopy after by Duolink in situ Proximity Ligation Assay (PLA) in MDA-MB-231 stimulated with Leptin (10 nM). This detection was also observed in MDA-MB-231-shGFP but very less in MDA-MB-231-shNRP-1 confirming NRP-1 association with OBR."}}}
{"substance": "Leptin: small non glycosylated protein, ligand of OBR", "values": [{"measurement": "OBR and STAT3 phosphorylation", "setting": "[1]", "result": "increase"}, {"measurement": "NRP-1 phosphorylation (T916)", "setting": "P-NRP-1", "result": "phosphorylated"}, {"measurement": "interaction with hNRP-1", "setting": "[2]", "result": "interact"}, {"measurement": "direct interaction between NRP-1 and OBR (Duolink PLA)", "setting": "NRP-1/OBR complex", "result": "takes place under Leptin stimulation"}]}
